The text below walks through data of patent US8293729B2 (Boehringer Ingelheim International GmbH, priority 2009, dated 2012).

The target in the first assay is T1, human GPR119 receptor (Homo sapiens, UniProt Q8TDV5, S329A/T327A).
T1 construct: N-terminal leader […]; expressed in transfected cells
T1 sequence (Q8TDV5 with tags, fused parts or gaps T327A/S329A): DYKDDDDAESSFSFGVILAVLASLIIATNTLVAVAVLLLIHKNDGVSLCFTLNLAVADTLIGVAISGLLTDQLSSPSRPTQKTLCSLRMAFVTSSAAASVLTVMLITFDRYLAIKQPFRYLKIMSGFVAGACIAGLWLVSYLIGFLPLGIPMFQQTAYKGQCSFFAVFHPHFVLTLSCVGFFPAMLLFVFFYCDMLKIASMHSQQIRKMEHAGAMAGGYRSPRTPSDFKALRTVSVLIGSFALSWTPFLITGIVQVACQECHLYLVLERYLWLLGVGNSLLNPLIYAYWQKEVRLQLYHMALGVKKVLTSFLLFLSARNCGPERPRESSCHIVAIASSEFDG
The assay can be described thus: cAMP assay (LANCE cAMP-384) in HEK293 cells stably expressing mutant human GPR119 receptor. The settings on record: EC50, cAMP accumulation, HEK293 cells stably expressing mutant human GPR119. The assay is classed as cell-based. A digest of the protocol:
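HEK293 cells stably expressing human GPR119 (T327A/S329A, modified N-terminus), 1000 cells/well, exposed to compound for 20 min at 37° C. cAMP quantified by LANCE TR-FRET against a standard curve; EC50 from 12 points, 30 μM to 100 pM, or % stimulation at 10 μM.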
(In general: cAMP levels reflect the balance of adenylyl cyclase and phosphodiesterase activity.)
As a reminder, the EC50 is the concentration needed to bring the measured effect to its halfway point. In turn, `CNC(=O)c1cc(F)c(N2CCC(=NOC3CCN(C(=O)OC(C)C)CC3)CC2)cc1F` [Example 2-35] showed an EC50 of 0.034 µM.

Staying with this assay, now noted: the 41st table, compounds 73-1, 73-2; unit inferred; read-out: EC50.
Turning to `CS(=O)(=O)c1ccc(N2CCC(=NOC3CCN(C(=O)N4CCCCC4)CC3)CC2)c(F)c1` [Example 73-1, 1-(2-FLUORO-4-METHANESULFONYL-PHENYL)-PIPERIDIN-4-ONE O-[1-(PIPERIDINE-1-CARBONYL)-PIPERIDIN-4-YL]-OXIME], the EC50 is 0.425 µM.
Same read-out and setting: for `CS(=O)(=O)c1ccc(N2CCC(=NOC3CCN(C(=O)N4CCCC4)CC3)CC2)c(F)c1` [Example 73-2] the value was 1.51 µM.

Staying with this assay, now noted: the 43rd table, compounds 75-1 to 75-38; read-out: EC50.
Consider `CC(C)OC(=O)N1CCC(ON=C2CCN(c3cc(F)c(CC(=O)NCCN(C)C)cc3F)CC2)CC1` [Example 75-1, 4-(1-{4-[(2-dimethylamino-ethylcarbamoyl)-methyl]-2,5-difluoro-phenyl}-piperidin-4-ylideneaminooxy)-piperidine-1-carboxylic acid isopropyl ester], for which the EC50 was determined as 0.254 µM.
Still for that read-out and setting: for `CC(C)OC(=O)N1CCC(ON=C2CCN(c3cc(F)c(CC(=O)N4CCC(CN)CC4)cc3F)CC2)CC1` [Example 75-9] the value was 0.144 µM; for `CC(C)OC(=O)N1CCC(ON=C2CCN(c3cc(F)c(CC(=O)NC[C@@H]4CCCN4)cc3F)CC2)CC1` [Example 75-10], 0.203 µM.
Still for that read-out and setting: under `CC(C)OC(=O)N1CCC(ON=C2CCN(c3cc(F)c(CC(=O)NC[C@H]4CCCN4)cc3F)CC2)CC1` [Example 75-11] stands 0.161 µM; under `CC(C)OC(=O)N1CCC(ON=C2CCN(c3cc(F)c(CC(=O)N4CCC(N)CC4)cc3F)CC2)CC1` [Example 75-12], 0.092 µM.
On the same count and under the same terms, under `CC(C)OC(=O)N1CCC(ON=C2CCN(c3cc(F)c(CC(=O)N4CCC[C@H](N)C4)cc3F)CC2)CC1` [Example 75-13] stands 0.116 µM.
Turning to `CC(C)OC(=O)N1CCC(ON=C2CCN(c3cc(F)c(CC(=O)N4CCC[C@@H](N)C4)cc3F)CC2)CC1` [Example 75-14], the EC50 was determined as 0.051 µM.
Same read-out and setting: for `CC(C)OC(=O)N1CCC(ON=C2CCN(c3cc(F)c(CC(=O)N4CC[C@H](CN)C4)cc3F)CC2)CC1` [Example 75-15] the value was 0.029 µM.
As to `CC(C)OC(=O)N1CCC(ON=C2CCN(c3cc(F)c(CC(=O)NC4CCCNC4)cc3F)CC2)CC1` (stereo not shown) [Example 75-16], the EC50 is 0.122 µM.
On the same count and under the same terms, under `CC(C)OC(=O)N1CCC(ON=C2CCN(c3cc(F)c(CC(=O)NC4CCNC4)cc3F)CC2)CC1` (stereo not shown) [Example 75-17] stands 0.152 µM; under `CC(C)OC(=O)N1CCC(ON=C2CCN(c3cc(F)c(CC(=O)NC4CCNCC4)cc3F)CC2)CC1` [Example 75-18], 0.098 µM; under `CC(C)OC(=O)N1CCC(ON=C2CCN(c3cc(F)c(CC(=O)N4CC[C@@H](N)C4)cc3F)CC2)CC1` [Example 75-19], 0.078 µM.
On to `CC(C)OC(=O)N1CCC(ON=C2CCN(c3cc(F)c(CC(=O)N4CC[C@H](N)C4)cc3F)CC2)CC1` [Example 75-20], for which the EC50 was found to be 0.045 µM.
On the same count and under the same terms, for `CNC1CCN(C(=O)Cc2cc(F)c(N3CCC(=NOC4CCN(C(=O)OC(C)C)CC4)CC3)cc2F)CC1` [Example 75-21] the value was 0.126 µM.
Consider `CC(C)OC(=O)N1CCC(ON=C2CCN(c3cc(F)c(CC(=O)N4CCCC(CN)C4)cc3F)CC2)CC1` (stereo not shown) [Example 75-22], for which the EC50 stood at 0.108 µM.
For the compound `CC(C)OC(=O)N1CCC(ON=C2CCN(c3cc(F)c(CC(=O)NCC4CCCNC4)cc3F)CC2)CC1` (stereo not shown) [Example 75-23], the half-maximal effective concentration (EC50) was 0.38 µM.
Same read-out and setting: for `CC(C)OC(=O)N1CCC(ON=C2CCN(c3cc(F)c(CC(=O)NCCN)cc3F)CC2)CC1` [Example 75-24] the value was 0.41 µM.
Still for that read-out and setting: under `CC(C)OC(=O)N1CCC(ON=C2CCN(c3cc(F)c(CC(=O)N4CCNCC4)cc3F)CC2)CC1` [Example 75-25] stands 0.092 µM; under `CC(C)OC(=O)N1CCC(ON=C2CCN(c3cc(F)c(CC(=O)NCC4CCNCC4)cc3F)CC2)CC1` [Example 75-26], 0.236 µM; under `CC(C)OC(=O)N1CCC(ON=C2CCN(c3cc(F)c(CC(=O)NCC4CCNC4)cc3F)CC2)CC1` (stereo not shown) [Example 75-27], 0.797 µM.
On the same count and under the same terms, under `CC(C)OC(=O)N1CCC(ON=C2CCN(c3cc(F)c(CC(=O)N4CCC[C@@H]4CN4CCCC4)cc3F)CC2)CC1` [Example 75-28] stands 0.246 µM.
For `CC(C)OC(=O)N1CCC(ON=C2CCN(c3cc(F)c(CC(=O)N4CCC[C@H]4CN4CCCC4)cc3F)CC2)CC1` [Example 75-29], the EC50 worked out at 2.91 µM.
On the same count and under the same terms, under `CC(C)OC(=O)N1CCC(ON=C2CCN(c3cc(F)c(CC(=O)N4CCCCC4CN4CCCC4)cc3F)CC2)CC1` (stereo not shown) [Example 75-30] stands 0.333 µM; under `CC(C)OC(=O)N1CCC(ON=C2CCN(c3cc(F)c(CC(=O)N4CCCCC4CN4CCOCC4)cc3F)CC2)CC1` (stereo not shown) [Example 75-31], 0.192 µM.
As for `CC(C)OC(=O)N1CCC(ON=C2CCN(c3cc(F)c(CC(=O)N4CCCCC4CN4CCCCC4)cc3F)CC2)CC1` (stereo not shown) [Example 75-32], the EC50 was found to be 0.3 µM.
On the same count and under the same terms, for `CC(C)OC(=O)N1CCC(ON=C2CCN(c3cc(F)c(CC(=O)NCC4CCN(C)C4)cc3F)CC2)CC1` (stereo not shown) [Example 75-33] the value was 0.128 µM; for `CC(C)OC(=O)N1CCC(ON=C2CCN(c3cc(F)c(CC(=O)N4CCC(CN5CCCC5)CC4)cc3F)CC2)CC1` [Example 75-34], 0.146 µM.
Still for that read-out and setting: under `CC(C)OC(=O)N1CCC(ON=C2CCN(c3cc(F)c(CC(=O)N4CCC(CN5CCCCC5)C4)cc3F)CC2)CC1` (stereo not shown) [Example 75-35] stands 0.171 µM; under `CC(C)OC(=O)N1CCC(ON=C2CCN(c3cc(F)c(CC(=O)N4CCCCC4CN(C)C)cc3F)CC2)CC1` (stereo not shown) [Example 75-36], 0.322 µM.
Still for that read-out and setting: for `CC(C)OC(=O)N1CCC(ON=C2CCN(c3cc(F)c(CC(=O)N4CCCC(CN(C)C)C4)cc3F)CC2)CC1` (stereo not shown) [Example 75-37] the value was 0.155 µM; for `CC(C)OC(=O)N1CCC(ON=C2CCN(c3cc(F)c(CC(=O)N4CCC(CN(C)C)CC4)cc3F)CC2)CC1` [Example 75-38], 0.092 µM.

Staying with this assay, now noted: the 44th table, compounds 77-1 to 77-14; read-out: EC50.
In the case of `CCc1cnc(N2CCC(ON=C3CCN(c4cc(F)c(CC(=O)NC5CCN(C)CC5)cc4F)CC3)CC2)nc1` [Example 77-1, 2-(4-{4-[1-(5-ethyl-pyrimidin-2-yl)-piperidin-4-yloxyimino]-piperidin-1-yl}-2,5-difluoro-phenyl)-N-(1-methyl-piperidin-4-yl)-acetamide], the EC50 was found to be 0.076 µM.
With `CCc1cnc(N2CCC(ON=C3CCN(c4cc(F)c(CC(=O)N5CCC(N)CC5)cc4F)CC3)CC2)nc1` [Example 77-2], the EC50 was 0.022 µM.
Same read-out and setting: under `CCc1cnc(N2CCC(ON=C3CCN(c4cc(F)c(CC(=O)N(C)C)cc4F)CC3)CC2)nc1` [Example 77-3] stands 0.018 µM.
Regarding `CCc1cnc(N2CCC(ON=C3CCN(c4cc(F)c(CC(N)=O)cc4F)CC3)CC2)nc1` [Example 77-4], the EC50 amounted to 0.032 µM.
The same measure, in the same setting: for `CCc1cnc(N2CCC(ON=C3CCN(c4cc(F)c(CC(=O)N5CC[C@H](N(C)C)C5)cc4F)CC3)CC2)nc1` [Example 77-5] the value was 0.006 µM; for `CCc1cnc(N2CCC(ON=C3CCN(c4cc(F)c(CC(=O)N5CC[C@@H](N(C)C)C5)cc4F)CC3)CC2)nc1` [Example 77-6], 0.009 µM; for `CCc1cnc(N2CCC(ON=C3CCN(c4cc(F)c(CC(=O)N5CCC[C@H](N)C5)cc4F)CC3)CC2)nc1` [Example 77-7], 0.045 µM.
Consider `CCc1cnc(N2CCC(ON=C3CCN(c4cc(F)c(CC(=O)N5CCC[C@@H](N)C5)cc4F)CC3)CC2)nc1` [Example 77-8], for which the EC50 turned out to be 0.03 µM.
Same read-out and setting: for `CCc1cnc(N2CCC(ON=C3CCN(c4cc(F)c(CC(=O)N5CC[C@H](CN)C5)cc4F)CC3)CC2)nc1` [Example 77-9] the value was 0.008 µM; for `CCc1cnc(N2CCC(ON=C3CCN(c4cc(F)c(CC(=O)NC5CCNCC5)cc4F)CC3)CC2)nc1` [Example 77-10], 0.02 µM; for `CCc1cnc(N2CCC(ON=C3CCN(c4cc(F)c(CC(=O)N5CC[C@@H](N)C5)cc4F)CC3)CC2)nc1` [Example 77-11], 0.047 µM.
The same measure, in the same setting: under `CCc1cnc(N2CCC(ON=C3CCN(c4cc(F)c(CC(=O)N5CC[C@H](N)C5)cc4F)CC3)CC2)nc1` [Example 77-12] stands 0.019 µM.
Take `CCc1cnc(N2CCC(ON=C3CCN(c4cc(F)c(CC(=O)N5CCNCC5)cc4F)CC3)CC2)nc1` [Example 77-13]: the EC50 amounted to 0.039 µM.
Still for that read-out and setting: for `CCc1cnc(N2CCC(ON=C3CCN(c4cc(F)c(CC(=O)N5CCC(CN(C)C)CC5)cc4F)CC3)CC2)nc1` [Example 77-14] the value was 0.006 µM.

A further assay relates to male ZDF rats. The assay can be described thus: In vivo OGTT (oral glucose tolerance test) in Sprague Dawley or Zucker Diabetic Fatty rats. Set-up: species or system rat. The settings on record: nine week old male ZDF rats, 30 mg/kg p.o. 30 minutes prior to glucose bolus, 2 hrs post glucose bolus. The procedure:
Nine to 13 week old Male Sprague Dawley rats weighing 250 g-350 g or 9 week old male Zucker Diabetic Fatty rats weighing 300 g-450 g were fasted overnight for 16 hours. At time zero, blood was collected using the tail-nick method and glucose was measured with a glucometer (Bayer HealthCare) Animals then immediately received either vehicle (80% Labrasol, Gattefossé, France) or 3, 10, or 30 mg/kg GPR119 agonist (p.o., volume 2 mL/kg). Thirty minutes later blood glucose was again measured preceding the administration of a glucose bolus (p.o. 2 g/kg, volume 6 mL/kg). Blood glucose was then determined at 10, 20, 30, 60, 90, 120, and 180 minutes post glucose bolus or 20, 40, 60, 80, 100, and 120 minutes past glucose bolus.
Nine week old male ZDF rats were dosed with either 30 mg/kg of Compound 2-35 or 30 mg/kg of Compound 8-1 30 minutes prior to administration of the glucose bolus.
Turning to `CNC(=O)c1cc(F)c(N2CCC(=NOC3CCN(C(=O)OC(C)C)CC3)CC2)cc1F` [Example 2-35], the “reduction of glucose excursion compared to vehicle (glucose area under the curve)” value was found to be 75%.
